Reference: ChEMBL document CHEMBL5113491, “Discovery of N-benzylarylamide derivatives as novel tubulin polymerization inhibitors capable of activating the Hippo pathway” (Eur J Med Chem, 2022)
Activity calls are given as the source filed them. The calls are words filed in the database; no cut-off is given here.

Assays:
[1] = test system: MGC-803; test: Antiproliferative activity against human MGC-803 cells assessed as inhibition of cell growth measured after 48 hrs by MTT assay; assay type: functional, cell-based; settings: MGC-803, 48 h
[2] = test system: MGC-803; test: Induction of cell cycle arrest in human MGC-803 cells assessed as increase in G2/M phase cells measured after 24 hrs by flow cytometry; assay type: functional, cell-based; settings: dose 15-45 nmol/L, DDE = dose-dependent effect
[3] = test system: SGC-7901; test: Antiproliferative activity against human SGC-7901 cells assessed as inhibition of cell growth at 15 to 45 […] by MTT assay; assay type: functional, cell-based; settings: dose 15-45 µmol/L, time <= 72.0 hrs, TDE = time-dependent effect
[4] = test system: SGC-7901; test: Downregulation of YAP protein expression in human SGC-7901 cells measured after 48 hrs by Western blot analysis; assay type: functional, cell-based; settings: dose 15-45 nmol/L, DDE = dose-dependent effect
[5] = test system: MGC-803; test: Downregulation of TAZ protein expression in human MGC-803 cells measured after 48 hrs by Western blot analysis; assay type: functional, cell-based; settings: dose 15-45 nmol/L, DDE = dose-dependent effect
[6] = test system: Huh-7; test: Antiproliferative activity against human Huh-7 cells assessed as inhibition of cell growth measured after 48 hrs by MTT assay; assay type: functional, cell-based; settings: Huh-7, 48 h
[7] = test system: SGC-7901; test: Induction of cell apoptosis in human SGC-7901 cells assessed as increase in apoptotic cells measured after 48 hrs by Annexin V/PI staining based flow cytometric analysis; assay type: functional; settings: dose 15-45 nmol/L, DDE = dose-dependent effect
[8] = test system: SGC-7901; test: Induction of morphological changes in human SGC-7901 cells assessed as cell fragmentation at 15 to 45 nmol/L measured after 48 hrs by bright field microscopic analysis; assay type: functional, cell-based; settings: dose 15-45 nmol/L
[9] = test system: MGC-803; test: Induction of morphological changes in human MGC-803 cells assessed as change in concentration of nuclei at 15 to 45 nmol/L measured after 48 hrs by DAPI staining based microscopic analysis; assay type: functional, cell-based; settings: dose 15-45 nmol/L
[10] = Cytotoxicity against human HUVEC cells assessed as reduction in cell viability measured after 48 hrs by MTT assay; assay type: toxicity, cell-based
[11] = test system: SGC-7901; test: Induction of G2/M phase cell cycle arrest in human SGC-7901 cells assessed as decrease in p-cdc2 (T161) expression at 15 to 45 nmol/L measured after 48 hrs by Western blot analysis; assay type: functional, cell-based; settings: dose 15-45 nmol/L
[12] = test system: MCF7; test: Antiproliferative activity against human MCF7 cells assessed as inhibition of cell growth measured after 48 hrs by MTT assay; assay type: functional, cell-based; settings: MCF7, 48 h
[13] = test system: SGC-7901; test: Induction of apoptosis in human SGC-7901 cells assessed as decrease in Mcl-1 protein expression measured after 48 hrs by Western blot analysis; assay type: functional, cell-based; settings: dose 15-45 nmol/L, DDE = dose-dependent effect
[14] = test system: HCT-116; test: Antiproliferative activity against human HCT-116 cells assessed as inhibition of cell growth measured after 48 hrs by MTT assay; assay type: functional, cell-based; settings: HCT-116, 48 h
[15] = test system: PC-3; test: Antiproliferative activity against human PC-3 cells assessed as inhibition of cell growth measured after 48 hrs by MTT assay; assay type: functional, cell-based; settings: PC-3, 48 h
[16] = biological target: T1, Tubulin (Homo sapiens) (UniProt P68371+Q9H4B7+P0DPH7+P68366+Q13509+Q71U36+P04350+Q3ZCM7+P07437+P68363+Q9BQE3+Q6PEY2+Q13885+Q9BVA1+Q9BUF5); test: Induction of microtubule disruption in human MGC-803 cells measured after 48 hrs by DAPI staining based immunofluorescence assay; assay type: cell-based; settings: dose 15-45 nmol/L, DDE = dose-dependent effect
[17] = test system: SGC-7901; test: Inhibition of colony formation in human SGC-7901 cells measured after 7 days; assay type: functional, cell-based; settings: dose 6-30 nmol/L, time 7.0 day, DDE = dose-dependent effect
[18] = test system: MGC-803; test: Induction of apoptosis in human MGC-803 cells assessed as increase in cleaved PARP expression at 15 to 45 nmol/L measured after 48 hrs by Western blot analysis; assay type: functional, cell-based; settings: dose 15-45 nmol/L
[19] = test system: MGC-803; test: Induction of apoptosis in human MGC-803 cells assessed as increase in cleaved caspase 9 expression at 15 to 45 nmol/L measured after 48 hrs by Western blot analysis; assay type: functional, cell-based; settings: dose 15-45 nmol/L
[20] = test system: SGC-7901; test: Induction of G2/M phase cell cycle arrest in human SGC-7901 cells assessed as decrease in cyclin B1 expression at 15 to 45 nmol/L measured after 48 hrs by Western blot analysis; assay type: functional, cell-based; settings: dose 15-45 nmol/L
[21] = test system: SGC-7901; test: Induction of G2/M phase cell cycle arrest in human SGC-7901 cells assessed as increase in p-Histone H3 expression at 15 to 45 nmol/L measured after 48 hrs by Western blot analysis; assay type: functional, cell-based; settings: dose 15-45 nmol/L
[22] = test system: MGC-803; test: Induction of morphological changes in human MGC-803 cells assessed as increase in proportion of dead cells at 15 to 45 nmol/L measured after 48 hrs by calcein-AM/PI staining based microscopic analysis; assay type: functional, cell-based; settings: dose 15-45 nmol/L
[23] = test system: MGC-803; test: Antiproliferative activity against human MGC-803 cells assessed as inhibition of cell growth measured upto 72 hrs by MTT assay; assay type: functional, cell-based; settings: dose 15-45 µmol/L, DDE = dose-dependent effect
[24] = test system: MGC-803; test: Induction of apoptosis in human MGC-803 cells assessed as decrease in Mcl-1 protein expression measured after 48 hrs by Western blot analysis; assay type: functional, cell-based; settings: dose 15-45 nmol/L, DDE = dose-dependent effect
[25] = biological target: T1, Tubulin (Homo sapiens); test: Induction of microtubule disruption in human MGC-803 cells at 25 nmol/L measured after 48 hrs by DAPI staining based immunofluorescence assay; assay type: cell-based
[26] = test system: SGC-7901; test: Induction of cell cycle arrest in human SGC-7901 cells assessed as increase in G2/M phase cells at 45 nmol/L measured after 24 hrs by flow cytometry (reference value: 7.04%); assay type: functional
[27] = biological target: T2, Tubulin beta (Homo sapiens) (UniProt P68371+Q9H4B7+Q13509+P04350+Q3ZCM7+P07437+Q13885+Q9BVA1+Q9BUF5+A6NNZ2); test: Binding affinity to beta-tubulin colchicine binding site in human MGC-803 cells assessed as inhibition of EBI-beta-tubulin adduct band formation preincubated for 2 hrs followed by EBI addition and measured after 2 hrs by EBI competition based Western blotting analysis; assay type: cell-based; settings: dose 1-10 µM, time 4.0 hrs, DDE = dose-dependent effect
[28] = test system: HGC-27; test: Antiproliferative activity against human HGC-27 cells assessed as inhibition of cell growth measured after 48 hrs by MTT assay; assay type: functional, cell-based; settings: HGC-27, 48 h
[29] = test system: MGC-803; test: Induction of apoptosis in human MGC-803 cells assessed as increase in cleaved caspase 7 expression at 15 to 45 nmol/L measured after 48 hrs by Western blot analysis; assay type: functional, cell-based; settings: dose 15-45 nmol/L
[30] = biological target: T1, Tubulin (Homo sapiens); test: Induction of microtubule disruption in human SGC-7901 cells at 25 nmol/L measured after 48 hrs by DAPI staining based immunofluorescence assay; assay type: cell-based
[31] = biological target: T2, Tubulin beta (Homo sapiens); test: Binding affinity to beta-tubulin colchicine binding site in human SGC-7901 cells assessed as inhibition of EBI-beta-tubulin adduct band formation preincubated for 2 hrs followed by EBI addition and measured after 2 hrs by EBI competition based Western blotting analysis; assay type: cell-based; settings: dose 1-10 µM, time 4.0 hrs, DDE = dose-dependent effect
[32] = test system: MGC-803; test: Induction of cell apoptosis in human MGC-803 cells assessed as increase in apoptotic cells measured after 48 hrs by Annexin V/PI staining based flow cytometric analysis; assay type: functional; settings: dose 15-45 nmol/L, DDE = dose-dependent effect
[33] = test system: SGC-7901; test: Downregulation of TAZ protein expression in human SGC-7901 cells measured after 48 hrs by Western blot analysis; assay type: functional, cell-based; settings: dose 15-45 nmol/L, DDE = dose-dependent effect
[34] = test system: MGC-803; test: Induction of apoptosis in human MGC-803 cells assessed as decrease in Bcl-xl protein expression measured after 48 hrs by Western blot analysis; assay type: functional, cell-based; settings: dose 15-45 nmol/L, DDE = dose-dependent effect
[35] = test system: GES1; test: Cytotoxicity against human GES1 cells assessed as reduction in cell viability at 5 to 40 nM measured after 48 hrs by MTT assay; assay type: toxicity, cell-based; settings: ges1, 48 h, 0.04 µM, dose 5-40 nM

IC50 [1]: 27 nM
IC50 [6]: 60 nM
IC50 [12]: 67 nM
IC50 [14]: 55 nM
IC50 [15]: 55 nM
Activity [16]: Dde
Activity [25]: Active
Activity [27]: Dde
Activity [30]: Active
Activity [31]: Dde
Compound: C/C=C/C(=O)N(Cc1ccc(OC)c(O)c1)c1cc(OC)c(OC)c(OC)c1
Activity [2]: Dde
Activity [3]: Tde
Activity [4]: Dde
Activity [5]: Dde
Activity [7]: Dde
Activity [8]: Active
Activity [9]: Active
IC50 at 48 h [10]: 48500 nM
Activity [11]: Active
Activity [13]: Dde
inhibition [17]: Dde
Activity [18]: Active
Activity [19]: Active
Activity [20]: Active
Activity [21]: Active
Activity [22]: Active
Activity [23]: Dde
Activity [24]: Dde
Activity [26]: 80.89%
IC50 [28]: 33 nM
Activity [29]: Active
Activity [32]: Dde
Activity [33]: Dde
Activity [34]: Dde
Activity [35]: Non-Toxic
